Measured values as given in patent publication US20060057133A1, “Topical pathogenic-tissue-destroying liquid” (priority 2002, published 2006).

Assays:
diseased tissue = assay: topical application of acids, enzymes and the topical liquid to skin, mucous membranes and diseased tissue; conditions: for aggressiveness toward the skin and mucous membranes / tissues: topical use while selecting components of the mixture
Description: The topical liquid or aqueous composition is composed of substances such as nitric acid and enzymes, mucins and ptyalin which are combined to form an aqueous pharmaceutical composition which is applied to the infected tissues and selectively attacks the cells of the diseased tissue or tumour. This composition is applied to the tissues which are to be eliminated, in dabs which are applied using a cotton swab moistened with the topical liquid that destroys the pathogenic tissue. It is applied to the diseased tissue as necessary, until the tissue changes colour and a small clear or pink halo appears round the treated tissue. The site is then washed with clean water. When applied to the mucous membranes, washing after application of the pathogenic-tissue destroying topical liquid is not necessary. […] However, this sometimes depends on the sensitivity of the individual (only individuals who have a tendency to form keloid scars will be left with a slight sign).

[1] = system: herpes simplex virus type 1; conditions: 4 mM, cited from earlier work

O=S(=O)(O)O [sulphuric, sulphuric acid]
aggressiveness toward the skin and mucous membranes / tissues (diseased tissue): too aggressive

O=C(O)C(O)CO (stereo not drawn) [glyceric acid]
synthesis of glycoproteins in normal cells ([1]; normal cells): slightly affected | production of the virus inhibited [1]: 99%

O=C(O)CC(O)(CC(=O)O)C(=O)O [citric acid]
coagulation of the diseased tissue (diseased tissue; topical application): did not succeed in coagulating the diseased tissue

Cl [hydrochloric acid]
aggressiveness toward the skin and mucous membranes / tissues (diseased tissue): too aggressive

O=[N+]([O-])O [Nitric acid]
aggressiveness toward the skin and mucous membranes / tissues (diseased tissue): least aggressive
